Results on five molecules are retold here after US20250361252A1 (EVER Neuro Pharma GmbH, priority 2022, published 2025).

The conditions of data set [1]: in NaCl solution; cited from earlier work.
For data set [2] the following is noted: single dose; cited from earlier work.
The conditions of data set [3]: cited from earlier work.
For data set [4] the following is noted: in vivo; cited from earlier work.
For data set [5], the system named is human hepatocytes. The data set can be described thus: Metabolic stability / conversion to apomorphine on incubation with human hepatocytes.

Usually solubility stands for how much of the substance goes into solution per volume. With `CN1CCc2cccc3c2[C@H]1Cc1ccc(O)c(O)c1-3` [apomorphine], in data set [1], the solubility is less than 10000 µg/mL. The “duration of effect (mean)” value in data set [2] was 40 min. For the same molecule, the “incidence of nodule formation” value in data set [3] (subcutaneous infusion therapy, meta-analysis) is on record as 70%. For the same molecule, in data set [3] (subcutaneous infusion, within one year), the “patients terminating therapy because of irritations” value is on record as 70%.
On to `N[C@@H](Cc1ccc(O)c(O)c1)C(=O)O` [L-dopa], for which the plasma half-life in data set [4] was 60 to 90 min.
Turning to “Apomorphine Monophosphate Calcium Salt [VIR-1-097-Ca]”, the “solubility in water” value is “Reduced solubility in water”.
Consider apomorphine monophosphate, for which, in data set [5] (cell-free negative control), the “formation of apomorphine in cell-free control group” value is “no significant formation of apomorphine”. Besides, in data set [5] (human hepatocytes), the “conversion of prodrug into apomorphine” value is listed as “rapidly converted into apomorphine”, the “half-life of apomorphine monophosphate” value turned out to be 33 min and the “time of highest amount of apomorphine found” value stood at 10 min. Further, the “apomorphine monophosphate converted to apomorphine” value in data set [5] (human hepatocytes, within 10 min) is “about 30%”. Further, in data set [5] (human hepatocytes, within 60 minutes), the apomorphine monophosphate consumed entry is given as “about 75%”.
As to “Apomorphine Monophosphate Potassium Salt [VIR-1-097-K]”, the “solubility in water” value is on record as “highly soluble in water”.
